ChEMBL document CHEMBL1201862, “PubChem BioAssay data set” (2004)
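Five concentrations, 48 hours, 96-well plates. Abbreviation: GI50, concentration required for 50% inhibition of growth.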 The source made the active and inactive calls. Rule as the data show it: active = GI50 up to about 1.1 µM and inactive = higher.

Legend:
Assay in all cases: inhibition of tumour cell growth, NCI panel, 48 h
BT-549 = tested on: BT-549
CAKI-1 = tested on: CAKI-1
COLO 205 = tested on: COLO 205
DU-145 = tested on: DU-145
EKVX = tested on: EKVX
HCC 2998 = tested on: HCC 2998
HL-60 = tested on: HL-60
IGROV-1 = tested on: IGROV-1
LOX IMVI = tested on: LOX IMVI
MDA-MB-435 = tested on: MDA-MB-435
MDA-N = tested on: MDA-N
NCI-H226 = tested on: NCI-H226
NCI-H522 = tested on: NCI-H522
OVCAR-3 = tested on: OVCAR-3
OVCAR-8 = tested on: OVCAR-8
SF-268 = tested on: SF-268
SK-MEL-2 = tested on: SK-MEL-2
TK-10 = tested on: TK-10
UACC-62 = tested on: UACC-62
HT-29 = tested on: HT-29

Row | SMILES | GI50 (BT-549) | GI50 (CAKI-1) | GI50 (COLO 205) | GI50 (DU-145) | GI50 (EKVX) | GI50 (HCC 2998) | GI50 (HL-60) | GI50 (IGROV-1) | GI50 (LOX IMVI) | GI50 (MDA-MB-435) | GI50 (MDA-N) | GI50 (NCI-H226) | GI50 (NCI-H522) | GI50 (OVCAR-3) | GI50 (OVCAR-8) | GI50 (SF-268) | GI50 (SK-MEL-2) | GI50 (TK-10) | GI50 (UACC-62) | GI50 (HT-29)
1 | C=C(C(=O)O)[C@@H]1C[C@@H]2O[C@H]1CC(C)=CCC/C(C)=C/CC[C@@]2(C)O | > 100 µM (inactive) | > 100 µM (inactive) | > 100 µM (inactive) | > 100 µM (inactive) | > 100 µM (inactive) | > 100 µM (inactive) | > 100 µM (inactive) | > 100 µM (inactive) | > 100 µM (inactive) | > 100 µM (inactive) | > 100 µM (inactive) | > 100 µM (inactive) | > 100 µM (inactive) | > 100 µM (inactive) | > 100 µM (inactive) | > 100 µM (inactive) | > 100 µM (inactive) | > 100 µM (inactive) | > 100 µM (inactive) | –
2 | OC(c1ccc(F)cc1)(c1ccc(F)cc1)C1CC1 | 19.2 µM (inactive) | 25.3 µM (inactive) | 16.2 µM (inactive) | 49.9 µM (inactive) | 29.2 µM (inactive) | 20.5 µM (inactive) | 21.3 µM (inactive) | 28.9 µM (inactive) | 20 µM (inactive) | 23 µM (inactive) | 19.4 µM (inactive) | 26.6 µM (inactive) | 21.2 µM (inactive) | 32.5 µM (inactive) | 37.2 µM (inactive) | 32.2 µM (inactive) | 16.1 µM (inactive) | 30.7 µM (inactive) | 23.9 µM (inactive) | 21.5 µM (inactive)
3 | O=C(O)c1c(CC(Cc2ccc3c(c2)CCCC3)C(=O)O)ccc2c1CCCC2 (stereo not drawn) | > 100 µM (inactive) | > 100 µM (inactive) | > 100 µM (inactive) | > 100 µM (inactive) | > 100 µM (inactive) | > 100 µM (inactive) | > 100 µM (inactive) | > 100 µM (inactive) | > 100 µM (inactive) | > 100 µM (inactive) | > 100 µM (inactive) | > 100 µM (inactive) | > 100 µM (inactive) | > 100 µM (inactive) | > 100 µM (inactive) | > 100 µM (inactive) | > 100 µM (inactive) | > 100 µM (inactive) | > 100 µM (inactive) | > 100 µM (inactive)
4 | COC(=O)c1c2c(cc3c1CC1(C3)Cc3cc4c(c(C(C)=O)c3C1)CCC4)C=CC2 (stereo not drawn) | > 31.6 µM (inactive) | 44.2 µM (inactive) | > 31.6 µM (inactive) | > 31.6 µM (inactive) | > 31.6 µM (inactive) | > 10 µM (inactive) | 16.7 µM (inactive) | > 31.6 µM (inactive) | > 10 µM (inactive) | 30.5 µM (inactive) | > 10 µM (inactive) | > 31.6 µM (inactive) | 27.6 µM (inactive) | > 31.6 µM (inactive) | > 31.6 µM (inactive) | > 31.6 µM (inactive) | > 31.6 µM (inactive) | > 31.6 µM (inactive) | 30.7 µM (inactive) | 18.7 µM (inactive)
5 | CCN(CC)CCOC(=O)Cc1cccc2c(=O)cc(-c3ccccc3)oc12 | 40.7 µM (inactive) | 13.6 µM (inactive) | 38.4 µM (inactive) | 40.3 µM (inactive) | 40.7 µM (inactive) | 44.6 µM (inactive) | 36.3 µM (inactive) | 44.6 µM (inactive) | 29.6 µM (inactive) | 55.1 µM (inactive) | 22.3 µM (inactive) | 38.8 µM (inactive) | 40.8 µM (inactive) | 52.8 µM (inactive) | 51.4 µM (inactive) | 47.2 µM (inactive) | > 150 µM (inactive) | 44.1 µM (inactive) | 29 µM (inactive) | 44.1 µM (inactive)
6 | C[n+]1c2ccccc2n2c3ccccc3c(NCc3ccco3)c(C#N)c21 | 18.5 µM (inactive) | 2.07 µM (inactive) | 1.67 µM (inactive) | 3.09 µM (inactive) | 2.78 µM (inactive) | 0.659 µM (active) | 3.17 µM (inactive) | – | 1.05 µM (active) | 1.76 µM (inactive) | 1.96 µM (inactive) | 2.23 µM (inactive) | 0.678 µM (active) | 2.7 µM (inactive) | 1.24 µM (inactive) | 2.42 µM (inactive) | 2 µM (inactive) | 1.52 µM (inactive) | 2.84 µM (inactive) | 2.7 µM (inactive)
7 | Cc1cnc(-n2c(C)nc3cc(Cl)ccc3c2=O)s1 | 28.4 µM (inactive) | 64.3 µM (inactive) | 19 µM (inactive) | 25.6 µM (inactive) | 11.1 µM (inactive) | 26.5 µM (inactive) | 26 µM (inactive) | 40 µM (inactive) | 41.6 µM (inactive) | 28.1 µM (inactive) | 13 µM (inactive) | 32 µM (inactive) | 22 µM (inactive) | 45.6 µM (inactive) | 45.7 µM (inactive) | 44.1 µM (inactive) | 25.4 µM (inactive) | 43.1 µM (inactive) | 23.2 µM (inactive) | 32.7 µM (inactive)
8 | Cc1ccc2c(=O)[nH]sc2c1 | 15.4 µM (inactive) | 5.4 µM (inactive) | 3.82 µM (inactive) | 88.1 µM (inactive) | 14.9 µM (inactive) | 21.2 µM (inactive) | 13.1 µM (inactive) | 19.7 µM (inactive) | 16.1 µM (inactive) | 14.5 µM (inactive) | 14 µM (inactive) | 19.7 µM (inactive) | 2.38 µM (inactive) | 17.8 µM (inactive) | 17.3 µM (inactive) | 19.9 µM (inactive) | 37.7 µM (inactive) | 18.4 µM (inactive) | 17.1 µM (inactive) | 16.7 µM (inactive)
9 | Cc1ccc(S(=O)(=O)NC(=O)NCC(=O)NCC(=O)O)cc1 | > 100 µM (inactive) | > 100 µM (inactive) | > 100 µM (inactive) | > 100 µM (inactive) | > 100 µM (inactive) | > 100 µM (inactive) | > 100 µM (inactive) | > 100 µM (inactive) | > 100 µM (inactive) | > 100 µM (inactive) | > 100 µM (inactive) | > 100 µM (inactive) | > 100 µM (inactive) | > 100 µM (inactive) | > 100 µM (inactive) | > 100 µM (inactive) | > 100 µM (inactive) | > 100 µM (inactive) | > 100 µM (inactive) | > 100 µM (inactive)
10 | NCCCCNCCCN1CC1 | 1.06 µM (active) | 0.0893 µM (active) | 0.871 µM (active) | 1.77 µM (inactive) | 3.15 µM (inactive) | 5.73 µM (inactive) | 0.436 µM (active) | 2.77 µM (inactive) | 0.284 µM (active) | 1.15 µM (inactive) | 1.62 µM (inactive) | 2.67 µM (inactive) | 2.47 µM (inactive) | 0.619 µM (active) | 0.883 µM (active) | 0.957 µM (active) | 0.752 µM (active) | 2.04 µM (inactive) | 5.18 µM (inactive) | 4.55 µM (inactive)
